US9457101B2, “Hydrogels for delivery of therapeutic polypeptides” (priority 2012, dated 2016)
Where two headings read alike, the source gives them in different places.

Tests used:
S. pyogenes = test: Bacterial growth inhibition by free proteins (A600); assay type: cell-based; details: 10 μM, at 5 hours
Experimental: Bacterial Growth Inhibition. Following digestion with thrombin as described above, GSH-agarose beads (GoldBio, St. Louis, Mo.) were used to separate GST from recombinant melittin. Synthetic melittin and GST-6xHis-melittin underwent a similar process without thrombin or being subjected to GSH-agarose treatment. Overnight cultures of S. pyogenes (ATCC, Manassas, Va., BAA-1633) cells were diluted in chemically defined medium were diluted to approximately 10^8 colony forming units (CFUs), corresponding to an absorbance at 600 nm (A600) of 0.1, and 150 μL distributed into 96-well, optical-bottom plates (Greiner BioOne, Frickenhausen, Germany) for treatment. GST-6xHis-melittin, recombinant melittin, or synthetic melittin (10 μM) were then added and the plate was incubated at 37° C. with shaking using a Biotek Synergy 2 plate reader (Winooski, Vt.). Absorbance (A600) measurements were obtained every ten minutes for 12 hours.

[1] = target: glutathione s-transferase; details: read-out: dissociation constant of glutathione from glutathione s-transferase; cited from earlier work
U-87 MG cells = test: Tumor cell growth inhibition (MTS assay); assay type: cell-based; details: 10 μM protein (thrombin 2 U), fusion without thrombin
Experimental: Tumor Cell Growth Inhibition. All proteins were incubated with thrombin at 37° C. for two hours prior to cellular assays. Malignant glioma cells, U-87 MG, (ATCC, Manassas, Va., 3,000 cells/cm^2) were seeded in a 96 well plate together with appropriate treatments in 100 μL DMEM and 10% FCS (Sigma-Aldrich, St. Louis, Mo.). Treatments included a cell only control (untreated), thrombin (2 U), GST (10 μM), GST-6xHis-melittin (10 μM), GST-6xHis-melittin (10 μM) simultaneously with thrombin (2 U), or synthetic melittin (10 μM; GenScript RP20415, Sigma-Aldrich, St. Louis, Mo.). The cells with their respective treatments were incubated at 37° C. in 5% CO2 overnight, approximately 16 hours. The MTS assay (Promega, Madison, Wis., CellTitre96) was performed according to the manufacturer recommendation and incubated for two hours before reading absorbance at 495 nm on a Labsystems Multiskan plus plate reader (Thermo Scientific, Hanover Park, Ill.).

[2] = system: blood vessels per area formed in the hydrogel; test: Mouse angiogenesis model, subcutaneous hydrogel implants; assay type: in vivo, mice; details: GM6001 intraperitoneally 0.1 mg/g once daily for two weeks
Text: PEGDA:GSH hydrogel is loaded with one or more GST-polypeptide fusions having a cleavage site for matrix metalloprotease-9 between GST and the polypeptide. Matrix metalloprotease-9 (MMP-9) recognizes the cleavage site having the amino acid sequence […] (SEQ ID NO:5). The loaded hydrogel is implanted in a mouse angiogenesis model to assess the bioactivity of the released polypeptides. Particularly, the polypeptides eGFP (i.e., Green Fluorescent Protein), mCherry (Red Fluorescent Protein), and a cell lytic polypeptide having the amino acid sequence […] (SEQ ID NO:3) are examined in this angiogenesis model.
Specifically, mice are administered an intraperitoneal injection of ketamine and xylazine (100 mg/kg and 5 mg/kg, respectively), and an injection site is rubbed with 75% ethanol. Anesthesia is indicated by a toe pinch reflex test. All instruments are autoclaved prior to use and standard aseptic technique is followed for the procedure as detailed below. […]
After 14 days, the inserted hydrogels are removed for whole mount immunostaining to determine the number of blood vessels per area formed in the hydrogel. […] Particularly, after one-hour of blocking, the hydrogel is incubated with anti-CD31 antibody overnight at 4 degrees Celsius to allow for fluorescence imaging of the endothelium formed about and/or within the hydrogel. […]

thrombin = test: Kinetics of thrombin cleavage of GST-GFP (SDS-PAGE densitometry); assay type: biochemical; details: for Km: read-out: Michaelis-Menten constant (Km) of thrombin to GST-GFP
Experimental: Reaction kinetics were measured by semi-quantitative densitometry of SDS-PAGE gels. Reactions with equivalent concentrations of GST-GFP substrate and varying concentrations of thrombin (0.1, 0.33, 0.75, 1.5, and 3 μM) were incubated at 37° C. for varying amounts of time. In groups where cleavage from microspheres was reported, approximately 10,000 microspheres were used. Reactions were stopped by addition of Laemmli sample buffer (containing SDS) and stored at 4° C. until run on SDS-PAGE. All gels were run with known concentrations of BSA standards. Density measurements were made with NIH imageJ software with gel backgrounds normalized. Each thrombin concentration was run one time, except for […], which was ran in biological triplicate.

[3] = below 1 mM GSH, after 6 days
Experimental: Protein Release. GSH mediated release studies were carried out over 6 days. Protein release was measured from 10,000 to 20,000 microspheres into 500 μL PBS in the presence and absence of glutathione. Release was measured with three independent replicates per experimental group. […] Therefore, at each 24-hour time point, glutathione containing buffers were completely replaced. The buffer that was removed was frozen for later analysis. At the completion of the experiment, all frozen samples were thawed and 50 μL of each samples were diluted in PBS and read on a Quantech fluorometer.

## recombinant melittin: melittin cleaved by thrombin from purified recombinant GST-6xHis-melittin
S. pyogenes
  growth of S. pyogenes: almost completely inhibited the growth

## N[C@@H](CCC(=O)N[C@@H](CS)C(=O)NCC(=O)O)C(=O)O [glutathione]
[1]
  Kd: 22 µM

## CC[C@H](C)[C@H](NC(=O)CN)C(=O)NCC(=O)N[C@@H](C)C(=O)N[C@H](C(=O)N[C@@H](CC(C)C)C(=O)N[C@@H](CCCCN)C(=O)N[C@H](C(=O)N[C@@H](CC(C)C)C(=O)N[C@H](C(=O)N[C@H](C(=O)NCC(=O)N[C@@H](CC(C)C)C(=O)N1CCC[C@H]1C(=O)N[C@@H](C)C(=O)N[C@@H](CC(C)C)C(=O)N[C@H](C(=O)N[C@@H](CO)C(=O)N[C@@H](Cc1c[nH]c2ccccc12)C(=O)N[C@H](C(=O)N[C@@H](CCCCN)C(=O)N[C@@H](CCCNC(=N)N)C(=O)N[C@@H](CCCCN)C(=O)N[C@@H](CCCNC(=N)N)C(=O)N[C@@H](CCC(N)=O)C(=O)N[C@@H](CCC(N)=O)C(N)=O)[C@@H](C)CC)[C@@H](C)CC)[C@@H](C)O)[C@@H](C)O)C(C)C)C(C)C [synthetic melittin, melittin, reference compound]
S. pyogenes
  growth of S. pyogenes: almost completely inhibited the growth
U-87 MG cells
  survival of U-87 MG cells: 15%

## CNC(=O)[C@H](Cc1c[nH]c2ccccc12)NC(=O)[C@@H](CC(=O)NO)CC(C)C [GM6001]
[2]
  vessel growth in the hydrogel: limited vessel growth

## GST-GFP
thrombin
  apparent Vmax of thrombin mediated release: 0.13 µg/min
thrombin; GST-GFP in association with PEGDA-GSH microspheres
  Km: ~0.3 µM
thrombin; free GST-GFP
  Km: ~0.18 µM
[3]
  protein remaining associated with the particles: more than 80%
